The source of these data is patent US10246429B2, “Vinyl fluoride cyclopropyl fused thiazin-2-amine compounds as beta-secretase inhibitors and methods of use” (AMGEN INC., priority 2015, dated 2019).

Structures are written as SMILES.

Test [1] concerns the target Cathepsin D (CatD) (Homo sapiens (Human), UniProt P07339). Put plainly: CatD assay. Format: biochemical. To be noted: read-out: IC50 IP (μM) CatD.
The target in test [2] is T1, BACE1 (Homo sapiens (Human), UniProt P56817). Put plainly: In vitro enzymatic BACE1 FRET assay. It counts as biochemical. Conditions: read-out: IC50 IP (μM) BACE1 Enzyme.
Target sequence in this assay (P56817 46-501): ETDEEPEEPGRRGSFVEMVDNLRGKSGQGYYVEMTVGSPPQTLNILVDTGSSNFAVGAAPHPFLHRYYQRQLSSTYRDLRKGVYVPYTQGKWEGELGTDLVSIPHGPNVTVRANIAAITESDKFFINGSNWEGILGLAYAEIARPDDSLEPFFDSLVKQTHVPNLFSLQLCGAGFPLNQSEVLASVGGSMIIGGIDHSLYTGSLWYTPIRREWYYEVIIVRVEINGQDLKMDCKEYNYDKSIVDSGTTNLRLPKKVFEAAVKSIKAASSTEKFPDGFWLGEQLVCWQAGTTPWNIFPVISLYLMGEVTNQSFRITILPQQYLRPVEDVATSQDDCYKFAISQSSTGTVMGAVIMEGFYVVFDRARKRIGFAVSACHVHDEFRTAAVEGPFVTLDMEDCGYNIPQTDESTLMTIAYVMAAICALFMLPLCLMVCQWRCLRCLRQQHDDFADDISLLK
Excerpt: (§1) In Vitro Enzymatic BACE1 and BACE2 FRET (Fluorescence Resonance Energy Transfer) Assays (Enzyme Assay Data in Table 1)
For test [3], the target named is T1, BACE1. Description: BACE1 cell assay. Format: cell-based.
Target sequence in this assay (P56817 46-501, species assumed): as the sequence (P56817 46-501) above
In test [4] the target is BACE2 (Homo sapiens (Human), UniProt Q9Y5Z0). Put plainly: In vitro enzymatic BACE2 FRET assay. Conditions: read-out: IC50 IP (μM) BACE2 Enzyme. It counts as biochemical.
Sequence of BACE2 (Q9Y5Z0 63-518): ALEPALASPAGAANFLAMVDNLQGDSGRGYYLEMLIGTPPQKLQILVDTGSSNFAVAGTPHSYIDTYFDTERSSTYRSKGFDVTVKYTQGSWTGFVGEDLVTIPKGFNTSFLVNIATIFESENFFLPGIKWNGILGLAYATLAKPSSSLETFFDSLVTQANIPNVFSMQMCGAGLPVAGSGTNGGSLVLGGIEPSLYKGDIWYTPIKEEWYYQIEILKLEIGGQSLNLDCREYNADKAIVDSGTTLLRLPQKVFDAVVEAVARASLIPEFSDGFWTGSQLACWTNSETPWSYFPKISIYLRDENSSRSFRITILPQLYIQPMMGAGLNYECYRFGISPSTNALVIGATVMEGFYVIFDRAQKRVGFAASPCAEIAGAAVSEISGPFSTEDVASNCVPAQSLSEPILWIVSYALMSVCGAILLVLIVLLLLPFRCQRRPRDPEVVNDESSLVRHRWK
Excerpt: as §1
Setting [5] is: read-out: IC50 IP (μM) BACE1 Cell.

Sequence of Cathepsin D (CatD) (P07339 65-412, species assumed): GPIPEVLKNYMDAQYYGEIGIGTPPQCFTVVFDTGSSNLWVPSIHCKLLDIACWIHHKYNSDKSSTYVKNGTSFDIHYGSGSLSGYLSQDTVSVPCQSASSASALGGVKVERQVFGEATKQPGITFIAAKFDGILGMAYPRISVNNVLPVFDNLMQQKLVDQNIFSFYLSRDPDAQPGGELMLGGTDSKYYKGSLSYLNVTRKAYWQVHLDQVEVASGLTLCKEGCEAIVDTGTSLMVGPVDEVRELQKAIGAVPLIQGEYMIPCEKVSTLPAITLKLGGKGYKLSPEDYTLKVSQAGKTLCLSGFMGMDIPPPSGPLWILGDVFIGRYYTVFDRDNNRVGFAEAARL

`COC(=O)[C@]12C[C@H]1[C@@](C)(c1cc(/C=C(\F)c3ccc(Cl)cn3)cnc1F)N=C(N)S2` [Example 176, (1S,5S,6S)-methyl 3-amino-5-(5-((Z)-2-(5-chloropyridin-2-yl)-2-fluorovinyl)-2-fluoropyridin-3-yl)-5-methyl-2-thia-4-azabicyclo[4.1.0]hept-3-ene-1-carboxylate]: the IC50 (usually the concentration needed to halve the response being measured) is above 400 µM in test [1], 0.142 µM in test [2], 1.76 µM in test [3] (setting [5]) and 0.214 µM in test [4].
On the same counts, the results for `COC(=O)[C@]12C[C@H]1[C@@](C)(c1cc(/C=C(/F)c3ccc(Cl)cn3)cnc1F)N=C(N)S2` [Example 177, (1S,5S,6S)-methyl 3-amino-5-(5-((E)-2-(5-chloropyridin-2-yl)-2-fluorovinyl)-2-fluoropyridin-3-yl)-5-methyl-2-thia-4-azabicyclo[4.1.0]hept-3-ene-1-carboxylate] are 527 µM, 0.291 µM, 5.44 µM and 2.9 µM.
The like results for `C[C@]1(c2cc(/C=C(\F)c3ccc(C#N)cn3)cnc2F)N=C(N)S[C@@]2(C(=O)N3CC[C@@H](F)C3)C[C@H]21` [Example 181, 6-((Z)-2-(5-((1S,5S,6S)-3-amino-1-((R)-3-fluoropyrrolidine-1-carbonyl)-5-methyl-2-thia-4-azabicyclo[4.1.0]hept-3-en-5-yl)-6-fluoropyridin-3-yl)-1-fluorovinyl)nicotinonitrile] were, in that order, 653 µM, 0.0021 µM, 0.0073 µM and 0.033 µM.
Consider `C[C@]1(c2cc(/C=C(\F)c3ccc(C#N)cn3)cnc2F)N=C(N)S[C@@]2(C(=O)N3CC[C@H](F)C3)C[C@H]21` [Example 182, 6-((Z)-2-(5-((1S,5S,6S)-3-amino-1-((S)-3-fluoropyrrolidine-1-carbonyl)-5-methyl-2-thia-4-azabicyclo[4.1.0]hept-3-en-5-yl)-6-fluoropyridin-3-yl)-1-fluorovinyl)nicotinonitrile], for which the IC50 was found to be 776 µM in test [1], 0.0024 µM in test [2], 0.007 µM in test [3] (setting [5]) and 0.045 µM in test [4].
Take `CN(C)C(=O)[C@]12C[C@H]1[C@@](C)(c1cc(/C(F)=C/c3ccc(Cl)cn3)ccc1F)N=C(N)S2` [Example 185, (1S,5S,6S)-3-amino-5-(5-((Z)-2-(5-chloropyridin-2-yl)-1-fluorovinyl)-2-fluorophenyl)-N,N,5-trimethyl-2-thia-4-azabicyclo[4.1.0]hept-3-ene-1-carboxamide]: the IC50 came to 172 µM in test [1], 0.132 µM in test [2], 0.695 µM in test [3] and 0.0764 µM in test [4].
For the molecule `CN(C)C(=O)[C@]12C[C@H]1[C@@](C)(c1cc(/C(F)=C/c3ccc(C#N)cc3)ccc1F)N=C(N)S2` [Example 186, (1S,5S,6S)-3-amino-5-(5-((Z)-2-(4-cyanophenyl)-1-fluorovinyl)-2-fluorophenyl)-N,N,5-trimethyl-2-thia-4-azabicyclo[4.1.0]hept-3-ene-1-carboxamide], the IC50 in test [1] was 48.7 µM; in test [2], 0.128 µM; in test [3] (setting [5]) it was 0.575 µM; in test [4], 0.302 µM.
The like results for `C[C@]1(c2cc(/C=C(\F)c3cnc(C#N)cn3)ccc2F)N=C(N)S[C@@]2(C(=O)N3CCCCC3)C[C@H]21` [Example 201, 5-((Z)-2-(3-((1S,5S,6S)-3-amino-5-methyl-1-(piperidine-1-carbonyl)-2-thia-4-azabicyclo[4.1.0]hept-3-en-5-yl)-4-fluorophenyl)-1-fluorovinyl)pyrazine-2-carbonitrile] were, in that order, 16.7 µM, 0.001 µM, 0.009 µM and 0.074 µM.
With `C#Cc1cnc(/C(F)=C/c2ccc(F)c([C@@]3(C)N=C(N)S[C@@]4(C(=O)N(C)C)C[C@H]43)c2)cn1` [Example 205, (1S,5S,6S)-3-amino-5-(5-((Z)-2-(5-ethynylpyrazin-2-yl)-2-fluorovinyl)-2-fluorophenyl)-N,N,5-trimethyl-2-thia-4-azabicyclo[4.1.0]hept-3-ene-1-carboxamide], the IC50 in test [1] is 113 µM; in test [2], 0.002 µM; in test [3], 0.569 µM; in test [4], 0.01 µM.
Turning to `CN(C)C(=O)[C@]12C[C@H]1[C@@](C)(c1cc(/C=C(\F)I)ccc1F)N=C(N)S2` [Example 206, (1S,5S,6S)-3-amino-5-(2-fluoro-5-((E)-2-fluoro-2-iodovinyl)phenyl)-N,N,5-trimethyl-2-thia-4-azabicyclo[4.1.0]hept-3-ene-1-carboxamide], the IC50 is 12.2 µM in test [1], 0.01 µM in test [2], 0.093 µM in test [3] (setting [5]) and 0.008 µM in test [4].
On the same counts, the results for `CN(C)C(=O)[C@]12C[C@H]1[C@@](C)(c1cc(/C=C(\F)C#Cc3ccccc3)ccc1F)N=C(N)S2` [Example 207, (1S,5S,6S)-3-amino-5-(2-fluoro-5-((Z)-2-fluoro-4-phenylbut-1-en-3-yn-1-yl)phenyl)-N,N,5-trimethyl-2-thia-4-azabicyclo[4.1.0]hept-3-ene-1-carboxamide] are 14.6 µM, 0.005 µM, 0.335 µM and 0.018 µM.
The like results for `CC#C/C(F)=C/c1ccc(F)c([C@@]2(C)N=C(N)S[C@@]3(C(=O)N(C)C)C[C@H]32)c1` [Example 209, (1S,5S,6S)-3-amino-5-(2-fluoro-5-((Z)-2-fluoropent-1-en-3-yn-1-yl)phenyl)-N,N,5-trimethyl-2-thia-4-azabicyclo[4.1.0]hept-3-ene-1-carboxamide] were, in that order, 56 µM, 0.094 µM, 0.324 µM and 0.01 µM.
For the molecule `COCCOc1cnc(/C(F)=C/c2ccc(F)c([C@@]3(C)N=C(N)S[C@@]4(C(=O)N(C)C)C[C@H]43)c2)cn1` [Example 210, (1S,5S,6S)-3-amino-5-(2-fluoro-5-((Z)-2-fluoro-2-(5-(2-methoxyethoxy)pyrazin-2-yl)vinyl)phenyl)-N,N,5-trimethyl-2-thia-4-azabicyclo[4.1.0]hept-3-ene-1-carboxamide], the IC50 in test [1] was found to be 159 µM; in test [2], 0.011 µM; in test [3], 0.007 µM; in test [4], 0.072 µM.
In the case of `CN(C)C(=O)[C@]12C[C@H]1[C@@](C)(c1cc(/C=C(\F)c3cnc(OCC4CC4)cn3)ccc1F)N=C(N)S2` [Example 211, (1S,5S,6S)-3-amino-5-(5-((Z)-2-(5-(cyclopropylmethoxy)pyrazin-2-yl)-2-fluorovinyl)-2-fluorophenyl)-N,N,5-trimethyl-2-thia-4-azabicyclo[4.1.0]hept-3-ene-1-carboxamide], the IC50 in test [1] turned out to be 67.8 µM; in test [2], 0.022 µM; in test [3] (setting [5]), 0.247 µM; in test [4], 0.044 µM.
On the same counts, the results for `CN(C)C(=O)[C@]12C[C@H]1[C@@](C)(c1cc(/C=C(\F)c3cnc(OCC4COC4)cn3)ccc1F)N=C(N)S2` [Example 212, (1S,5S,6S)-3-amino-5-(2-fluoro-5-((Z)-2-fluoro-2-(5-(oxetan-3-ylmethoxy)pyrazin-2-yl)vinyl)phenyl)-N,N,5-trimethyl-2-thia-4-azabicyclo[4.1.0]hept-3-ene-1-carboxamide] are 202 µM, 0.076 µM, 0.065 µM and 0.077 µM.
On the same counts, the results for `CN(C)C(=O)[C@]12C[C@H]1[C@@](C)(c1cc(/C=C(\F)c3cnc(OCC(F)F)cn3)ccc1F)N=C(N)S2` [Example 213, (1S,5S,6S)-3-amino-5-(5-((Z)-2-(5-(2,2-difluoroethoxy)pyrazin-2-yl)-2-fluorovinyl)-2-fluorophenyl)-N,N,5-trimethyl-2-thia-4-azabicyclo[4.1.0]hept-3-ene-1-carboxamide] are 103 µM, 0.021 µM, 0.039 µM and 0.065 µM.
As for `COC[C@H](C)Oc1cnc(/C(F)=C/c2ccc(F)c([C@@]3(C)N=C(N)S[C@@]4(C(=O)N(C)C)C[C@H]43)c2)cn1` [Example 214, (1S,5S,6S)-3-amino-5-(2-fluoro-5-((Z)-2-fluoro-2-(5-(((S)-1-methoxypropan-2-yl)oxy)pyrazin-2-yl)vinyl)phenyl)-N,N,5-trimethyl-2-thia-4-azabicyclo[4.1.0]hept-3-ene-1-carboxamide], the IC50 in test [1] turned out to be 134 µM; in test [2], 0.014 µM; in test [3] (setting [5]), 0.024 µM; in test [4] it was 0.072 µM.
On the same counts, the results for `CN(C)C(=O)[C@]12C[C@H]1[C@@](C)(c1cc(/C=C(\F)c3cnc(OCC4CC4(F)F)cn3)ccc1F)N=C(N)S2` (stereo partly drawn) [Example 215, (1S,5S,6S)-3-amino-5-(5-((Z)-2-(5-((2,2-difluorocyclopropyl)methoxy)pyrazin-2-yl)-2-fluorovinyl)-2-fluorophenyl)-N,N,5-trimethyl-2-thia-4-azabicyclo[4.1.0]hept-3-ene-1-carboxamide] are 121 µM, 0.037 µM, 0.262 µM and 0.051 µM.
On the same counts, the results for `Cc1nnc(COc2cnc(/C(F)=C/c3ccc(F)c([C@@]4(C)N=C(N)S[C@@]5(C(=O)N(C)C)C[C@H]54)c3)cn2)o1` [Example 216, (1S,5S,6S)-3-amino-5-(2-fluoro-5-((Z)-2-fluoro-2-(5-((5-methyl-1,3,4-oxadiazol-2-yl)methoxy)pyrazin-2-yl)vinyl)phenyl)-N,N,5-trimethyl-2-thia-4-azabicyclo[4.1.0]hept-3-ene-1-carboxamide] are 391 µM, 0.007 µM, 0.005 µM and 0.072 µM.
